Laboratory results reported in article PMC5593639, “NSC30049 inhibits Chk1 pathway in 5-FU-resistant CRC bulk and stem cell populations” (Oncotarget, 2017).

How the values were obtained:
[1] = system: Chk1 phosphorylation in HT29 cells; experiment: Western blot of total and phosphorylated Chk1, HT29; assay type: cell-based, human
Procedure: The levels of various proteins were determined by Western blot analysis with our previously described procedure. The antibodies for phospho-Chk1(Ser317), phospho-Chk1(Ser317), phospho-Chk1(Ser319), phospho-Chk1(Ser345), Chk1, and GAPDH were purchased from Cell Signaling Technology (Danvers, MA, USA).

[2] = system: γH2AX(S139P)-foci in HCT-116 cells; experiment: γH2AX(S139P)-foci IHC staining, HCT-116; assay type: cell-based, human; settings: 24 h
HCT116(p53+/+) cells = experiment: MTT assay, IC50 of HU, HCT116(p53+/+); assay type: cell-based, human; settings: HU combined with NSC49L, 72 h
Procedure: (§1) The survival of cells was determined by MTT (3-(4,5-Dimethylthiazol-2yl-)-2,5-diphenyl tetrazolium bromide) assay (ATCC, Manassas, VA, USA). In principle, the viable cell number is directly proportional to the purple formazan color of the reduced MTT dye, which can be quantitatively measured by spectrophotometry. Briefly, 1,500 cells were plated in quadruplets in 96-well flat-bottom tissue culture plates. After treatment with compounds for certain periods as described in respective figure legends, 10 μl of MTT reagent was added to each well and incubated at 37°C for 4 h to allow the formation of purple color crystals of formazan. In total, 100 μl of detergent solution was added to each well, and the reaction mixture was incubated in dark for 2–4 h at room temperature. The developed color density was then measured spectrophotometrically at 570 nm using the POLARstar Omega micro-plate reader (BMG Labtech, Inc., Cary, NC, USA).

RKO cells = experiment: Cell survival (MTT assay), RKO; assay type: cell-based; settings: Homo sapiens, drug alone, 48 h
Procedure: as §1

HCT116(p53−/−) cells = experiment: MTT assay, IC50 of HU, HCT116(p53−/−); assay type: cell-based, human; settings: HU combined with NSC49L, 72 h
Procedure: as §1

[3] = system: ALDH1, KLF4, Nanog, Oct4, Sox2, c-Myc mRNA in CA2 cells; experiment: Stem cell marker and self-renewal gene mRNA levels by qRT-PCR; assay type: cell-based, human; settings: 72 h
Procedure: Total RNA was isolated from control and treated cells with RNAzol reagent (Invitogen, Carlsbad, CA, USA). The expression of mRNA levels of stemness genes was determined by qRT-PCR using Bio-Rad CFX96 Real Time System C1000 Thermal Cycler. The primers used for amplification of mRNA levels of genes were from Celprogen, Inc., as shown here with their Gene Bank accession and catalog numbers: ALDHA1 (NM_000689, Cat. No. CepALDHA1-02), Klf4 (NM_004235, Cat No. CepKlf4-02), Nanog (NM_024865, Cat. No. CepNanog-02), Oct4 (NM_002701, Cat No. CepOct4-02), Sox2 (NM_003106, Cat. No. CepSox2-02), c-Myc (NM_002467, Cat. No. Cepc-Myc-02) and GAPDH (NM_002046, Cat. No. Cep-GAPDH-02).

[4] = Pharmacokinetic analysis in CD1 mice; assay type: in vivo, male CD1 mice; settings: 20 mg/kg body weight, IP, plasma
Procedure: Pharmacokinetic analysis of NSC30049 in CD1 mice was determined by Pharmaron, Inc. (Louisville, KY, USA). Mice were injected intraperitoneally (IP) with NSC49L (20 mg/kg body weight) and approximately 0.04 ml blood was collected at 0, 5, 15 and 30 min, 1, 2, 4, 8 and 24 h time point. Blood of each sample was transferred into plastic micro-centrifuge tubes containing 2 μl of Heparin (1,000 IU). Samples were stored in a freezer at −75 ± 15°C prior to analysis. Concentrations of NSC49L in the plasma samples was analyzed using a LC-MS/MS method. WinNonlin® (Phoenix®, version 6.1) software was used for pharmacokinetic calculations. The following pharmacokinetic parameters were calculated from the plasma concentration versus time data: T1/2, Cmax, AUClast, AUCinf, AUCextra%, Number of Points for Regression. The pharmacokinetic data is described using mean ± standard deviation (SD) and n = 3.

[5] = system: HCoEpiC normal colonic epithelial cell line; experiment: Cell survival (MTT assay), HCoEpiC; assay type: cell-based; settings: Homo sapiens, drug alone, 48 h
Procedure: as §1

HCT-116 cells = experiment: Cell survival (MTT assay), HCT-116; assay type: cell-based, human; settings: Homo sapiens, HCT-116, 48 h
Procedure: as §1

LS174T cells = experiment: Cell survival (MTT assay), LS174T; assay type: cell-based; settings: Homo sapiens, drug alone, 48 h
Procedure: as §1

[6] = system: FOLFOX-resistant-HCT116 cells; experiment: Cell survival (MTT assay), FOLFOX-resistant-HCT116; assay type: cell-based; settings: Homo sapiens, FOLFOX-resistant HCT-116, 48 h
Procedure: In some experiments, 5-FU, leucovorin and oxaliplatin (FOLFOX)-resistant-HCT-116 and FOLFOX-resistant-HT29 cells were used. These cells were obtained from Dr. Adhip P. Majumdar (John D. Dingell VA Medical Center, Detroit, MI). These cells were generated by exposure to clinically relevant doses and schedules. The exposing schedule was for 12 cycles; each cycle lasted for one week. Briefly, the cells were first exposed to FOLFOX (25 μM 5-FU and 0.625 μM oxaliplatin) for 72 hours. The surviving cells were then cultured in normal medium without the drugs for 4 to 5 days. This cycle was repeated 12 times. The surviving cells were then split and exposed to higher doses of FOLFOX (50 μM 5-FU + 1.25 μM oxaliplatin or 100 μM 5-FU + 2.5 μM oxaliplatin) for 2 to 3 days per week for approximately 4 weeks. […]
The survival of cells was determined by MTT (3-(4,5-Dimethylthiazol-2yl-)-2,5-diphenyl tetrazolium bromide) assay (ATCC, Manassas, VA, USA). In principle, the viable cell number is directly proportional to the purple formazan color of the reduced MTT dye, which can be quantitatively measured by spectrophotometry. […] The developed color density was then measured spectrophotometrically at 570 nm using the POLARstar Omega micro-plate reader (BMG Labtech, Inc., Cary, NC, USA).

[7] = 2 mM HU 24 h, then NSC49L 5, 10, 20 μM additional 8 h

ClC/C=C/C[N+]12CN3CN(CN(C3)C1)C2 [NSC49L]
Chk1(S296P) levels [1, 7]: increased at low concentrations of NSC49L (5 μM), but decreased at 10 and 20 μM concentrations | Chk1(S317P) level [1, 7]: decreased in a dose-dependent manner | Chk1(S345P) level ([1]; 2 mM HU 24 h, then NSC49L additional 8 h): increased above the HU treatment level in a dose-dependent manner | Chk1 phosphorylation ([1]; NSC49L alone, 8 h): did not show any significant effect | γH2AX(S139P)-foci ([2]; NSC49L alone): increased | γH2AX(S139P)-foci ([2]; NSC49L in combination with 5-FU): further increased | IC50 of HU (HCT116(p53+/+) cells): further decreased | IC50 (RKO cells): 4.9 ± 0.4 µM | IC50 of HU (HCT116(p53−/−) cells): further decreased | mRNA levels of ALDH1, KLF4 and Nanog ([3]; NSC49L combined with 5-FU): further decreased | mRNA levels of ALDH1, KLF4, Nanog, Oct4, Sox2 and c-Myc ([3]; drug alone, normalized with GAPDH): decreased | AUC_%Extrap_obs [4]: 0.187 ± 293% | AUC(0-inf) ([4]; male, CD1, mouse): 1310 ± 89 ng·h/mL | AUC(0-t) ([4]; male, CD1, mouse): 1310 ± 86 ng·h/mL | Cmax ([4]; male, CD1, mouse): 5530 ng/mL | Tmax ([4]; male, CD1, mouse): 4.98 min | half-life ([4]; male, CD1, mouse, n = 3): 14 ± 5.88 min | AUC ([4]; male, CD1, mouse, read-out: AUC (bioavailability)): 1310 ± 86 ng·h/mL | IC50 [5]: 31.9 ± 0.9 µM | IC50 (HCT-116 cells; MTT assay, Figure 1B, three experiments): 3.9 µM | IC50 (HCT-116 cells; drug alone, MTT, Table 1, four estimations): 2.8 ± 0.5 µM | IC50 (LS174T cells): 4.6 ± 0.8 µM | IC50 [6]: 5.4 µM
